Experimental data reported in article PMC5590070, “Anti-Inflammatory, Antioxidant, Antibiotic, and Cytotoxic Activities of Tanacetum vulgare L. Essential Oil and Its Constituents” (Medicines, 2017).

Legend:
[1] = system: NO production in murine macrophage RAW 264.7 cells; test: Inhibition of NO production in LPS-stimulated RAW 264.7 macrophages (Griess reaction); assay type: cell-based; settings: inhibition of NO production, RAW 264.7, 100 ng·mL^−1 LPS, 24 h
Procedure: We evaluated the inhibition NO production by T. vulgare essential oil and compounds as described by Legault et al.. Control L-NAME was used as positive control. Murine macrophage RAW 264.7 cells were incubated with essential oil or dissolved compounds in DMSO and then stimulated with 100 ng·mL^−1 LPS and incubated at 37 °C. After 24 h, we collected the cell-free supernatants and immediately determined the NO concentration using the Griess reaction. We read the absorbance at 540 nm using an automated Varioskan Ascent plate reader (Labsystems, Milford, MA, USA), and quantified the presence of nitrite by comparing with a NaNO2 standard curve.

[2] = system: human skin fibroblasts WS1; test: Cell-based antioxidant DCFH-DA assay (tert-butylhydroperoxide-induced DCFH oxidation); settings: inhibition of DCFH oxidation induced by tert-butylhydroperoxide, WS1 cells
Procedure: Antioxidant activity was evaluated using the DCFH-DA assay as described by Girard-Lalancette et al.. To assess antioxidant activity, we incubated the human skin fibroblasts WS1 for 1 h with a growing concentration of essential oil or dissolved compounds in DMSO. We then added 100 µL of 200 µM tert-butylhydroperoxide and immediately measured fluorescence as well as again after 90 min later. Measurements were performed on an automated plate reader (Fluoroskan Ascent FL, Labsystems, Milford, MA, USA) using an excitation wavelength of 485 nm and an emission wavelength of 530 nm.

[3] = system: Escherichia coli (ATCC 25922); test: Antibacterial hydrophobic assay (resazurin); assay type: cell-based; settings: E. coli, 50% inhibition of bacterial growth
Source text: (§1) We tested the antibacterial activities of T. vulgare essential oil and compounds against gram-negative Escherichia coli (ATCC bacteria 25922) and gram-positive Staphylococcus aureus (ATCC bacteria 25923) using the antibacterial hydrophobic assay as described by Côté et al.. This new method was developed and used in this work as classical methods including disc diffusion and microdilution assays are sometimes inefficient for testing a matrix or compounds of a hydrophobic nature. Briefly, after microorganisms passed 16–18 h at 37 °C in a nutrient broth base (Difco), we transferred 20 µL methanol containing growing concentrations of essential oil and compounds (3.1 to 200 µg·mL^−1) onto nutrient agar of 96-well plates. We then added bacterial strains having a concentration of 5 × 10^3 colony forming units (CFU) per mL of nutrient broth. […] The blank consisted of culture medium only and was subtracted from all subsequent measurements of every other well. The 96-well plates were then incubated at 37 °C for 5 h to foster bacterial growth. We then added 100 µL of resazurin sodium salt solution having a concentration of 50 µg·mL^−1 (Sigma R-2127, St-Louis, MO, USA) to each well.

[4] = system: Staphylococcus aureus (ATCC 25923); test: Antibacterial hydrophobic assay (resazurin); assay type: cell-based; settings: S. aureus, 50% inhibition of bacterial growth
Source text: as §1

[5] = system: human colon adenocarcinoma DLD-1; test: Cytotoxic assay, resazurin reduction test, 48 h; assay type: cell-based; settings: DLD-1, 48 h
Procedure: (§2) We plated in 96-well microplates—each containing a 100 µL culture medium—exponentially growing cells of human skin fibroblasts WS1, human HaCaT keratinocytes, human lung carcinoma A-549, and human colon adenocarcinoma DLD-1 at a density of 5 × 10^3 cells per well (Costar, Corning Inc., Lowell, MA, USA). The cells were allowed to adhere for 16 h before treatment. We then treated cells with T. vulgare essential oil or dissolved compounds in DMSO. The final concentration of DMSO in the culture medium was 0.5% (v/v) to avoid solvent toxicity. After 48 h, we assessed the cytotoxicity using the resazurin reduction test. Fluorescence was measured on an automated Fluoroskan Ascent FL^TM plate reader (Labsystems, Milford, MA, USA) using an excitation wavelength of 530 nm and an emission wavelength of 590 nm.

[6] = system: human lung carcinoma A-549; test: Cytotoxic assay, resazurin reduction test, 48 h; assay type: cell-based; settings: A-549, 48 h
Procedure: as §2

[7] = system: human skin fibroblasts WS1; test: Cytotoxic assay, resazurin reduction test, 48 h; assay type: cell-based; settings: WS1, 48 h
Procedure: as §2

## C/C1=C\CC/C(C)=C/CC(C)(C)/C=C/C1 [α-Humulene]
[1]
  Anti-Inflammation IC50: 15 ± 2 µg/mL
[2]
  Antioxidant IC50: >200 µg/mL
[3]
  Antibacterial IC50 E. coli: >200 µg/mL
[4]
  Antibacterial IC50 S. aureus: >200 µg/mL
[5]
  Cytotoxicity IC50 DLD1: 43 ± 3 µg/mL
[6]
  Cytotoxicity IC50 A549: 28 ± 1 µg/mL
[7]
  Cytotoxicity IC50 WS1: 24 ± 3 µg/mL
